For one compound, Cells killed results are on record in patent US9605285B2, “Compositions and methods for succinate production” (CARGILL, INCORPORATED, priority 2011, dated 2017).

The structures appear in SMILES notation.

For this experiment, the system named is yeast cells. Kind of experiment: EMS mutagenesis of yeast cells. Format: cell-based. As to conditions: 3 μL EMS per 200 μL cell suspension, approximately one hour. As for the experimental part: For example, yeast cells from a fresh YP (yeast extract/peptone)+20 g/L glucose plate or liquid culture (OD600 1-4) are resuspended in sterile water to an OD600 of around 10. 200 μL aliquots of this cell suspension are pipetted into individual tubes and exposed to 3 μL […] (EMS) for approximately one hour, which kills around 65% of the cells. Higher EMS concentrations can also be used to increase the kill rate. After exposure, cells are neutralized with 5% sodium thiosulfate, washed in PBS buffer, recovered in rich media for approximately four hours, and cultured on selective media. Mock samples (no EMS) are also run to ensure that the conditions are selective. Alternatively, cell can be mutagenized using UV irradiation.

With `CCOS(C)(=O)=O` [EMS, ethane methyl sulfonate], the Cells killed result was “around 65%”.
